From US7772192B2, “Compositions and methods for treatment of disease with acetylated disaccharides” (The Regents of the University of California, priority 2003, dated 2010)

Legend:
[1] = system: LLC cells adhering to recombinant P-selectin; experiment: Adhesion of LLC cells to immobilized P-selectin; assay type: cell-based
From the text: LLC cells were “panned” onto wells precoated with recombinant P-selectin (R&D Systems, Minneapolis, M) as described (Brown et al., 2003; Fuster et al., Cancer Research 63: 2775-2781, 2003). The extent of adhesion was normalized to the value obtained for cells not treated with disaccharide. Controls included sialidase and anti-Ps monoclonal antibody treatment.

LLC cells = experiment: Spontaneous tumor metastasis of LLC cells, compound by osmotic pump; assay type: in vivo, mice; settings: ~1 mg/day/mouse, 4 weeks
Description: Osmotic pumps (ref 4) containing vehicle or peracetylated GlcNAcβ3Gal-NM were surgically implanted in a dorsal skin fold of Es1(e) mice and LLC cells (5×10^5) were implanted subcutaneously in the hindquarter. The dose rate of compound was ˜1 mg/day/mouse. Panel A. To detect tumor cells in the lungs, after 4 weeks each animal was injected intraperitoneally with 1 mg of BrdU (bromodeoxyuridine (BrdU), which is taken up by dividing cells—tumor cells, and therefore indicates the quantity of tumor cells in the lungs when cells from the lungs are stained with anti-BrdU antibodies). The animals were sacrificed, the heart was perfused with PBS and the lungs removed. Each lung was incubated with collagenase (10 mg/ml, 1 h, 37° C.), syringed through an 18-gauge needle and filtered through a […] nylon filter, and cells were fixed (70% ethanol, 1×10^6 cells/ml). The relative number of BrdU-labeled cells in the lungs was determined by flow cytometry (FACS) using a mouse anti-BrdU-FITC antibody. Control experiments used mouse IgG-FITC antibody. Statistics were calculated by one-way ANOVA tests comparing three groups of 4-7 animals. […] Statistics were calculated by student t-test comparing two groups of 4-7 animals.

LS180 cells [2] = experiment: Biodistribution of pretreated radiolabeled tumor cells in mice; assay type: in vivo
Description: Biodistribution studies in mice. LS180 cells were grown for 3 days in the presence or absence of 50 μM AcGnG-NM. [^3H-methyl]thymidine (10 μCi/ml, NEN Life Sciences Products) was added to the medium, and cells were incubated for another 3 days. The cells were then harvested with EDTA, resuspended in sterile 0.9% saline, and injected (1×10^5 cells/100 μL) into the lateral tail vein of anesthetized (inhaled methoxyflurane, Janssen Pharmaceuticals) 6-8 week-old wildtype C57BL/6 mice or P-selectin deficient mice bred on the same background (Jackson Laboratory). Mayadas et al., Cell, 74: 541-554, 1993. […] The organs were digested at 55° C. overnight with Proteinase K (0.15 μg/ml, Boehringer Mannheim) in 2 mL PBS containing 1% sodium dodecyl sulfate, and homogenized by repeated passage through an 18 gauge needle. The amount of radioactive DNA in the blood and the organ extracts was then determined using an Easy DNA Kit (Invitrogen) and liquid scintillation spectrometry. The total counts in blood were estimated by assuming a total blood volume of 2 mL per mouse. Proper attention has been given to experimental ethical considerations towards animals as prescribed by the Animal Subjects Program at the University of California.
Altered biodistribution of AcGnG-NM treated tumor cells. The lung is the major “first-pass” adhesion target for tumor cells introduced into the venous circulation. […] Radiolabeled cells were injected into the lateral tail vein of C57BL/6 mice, and allowed to circulate for 3 hours. Mice were sacrificed and DNA was extracted from organ homogenates and whole blood. The counts were normalized to the total recovered counts, which typically represented 80-90% of the injected samples. In FIG. 6A, each value represents the average recoveries from 4 wildtype mice±standard deviation from the mean. In FIG. 6B, the experiment was repeated in P-selectin deficient C57BL/6 mice that were injected with either control- or AcGnG-NM-treated LS180 cells. […]

LS180 cells [3] = experiment: Cytolytic assay (51Cr release) with platelets; assay type: cell-based, human
[4] = system: LS180 cells adhering to TNF-α activated HMVEC; experiment: Adhesion of tumor cells to activated human endothelial cells; assay type: cell-based; settings: LS180 cells grown 5 days with disaccharide
Description: Adhesion of tumor cells to activated human endothelial cells. HMVEC were added to 96-well plates (1×10^4 cells/well) in EBM-2 media (Clonetics), and allowed to grow to confluence over 2 days. The cells were activated with TNF-α (20 ng/ml; R&D Systems) for 4 hr at 37° C. Calcein labeled tumor cells, harvested after growth for 5 days in various levels of AcGnG-NM, were added to HMVEC at 2.5×10^4 cells/well in 100 μl DMEM and allowed to settle for 20 min. The wells were washed twice with cold PBS, and the extent of binding was determined by fluorimetry. In some experiments anti-E-selectin mAb (2 μg/well) was added prior to addition of tumor cells, cells were treated with sialidase (20 mU/10^6 cells), or TNF-α was omitted.
AcGnG-NM inhibits adhesion to activated endothelia and platelets. In the circulation, tumor cells can encounter E- and P-selectins expressed on endothelial cells, P-selectin on platelets, and L-selectin on leukocytes. Since the presentation of receptors on cells may differ from their arrangement when immobilized on plastic surfaces, LS180 cells were challenged to bind to E-selectin expressed on TNF-α activated human microvascular endothelial cells (HMVEC). […] HMVEC were activated with TNF-α and overlaid with Calcein-loaded LS180 cells. The extent of adhesion was normalized to the value obtained for cells not treated with disaccharide. […]

[5] = wildtype C57BL/6 mice, 3 hours, cells pretreated with 50 μM

With “GlcNAcβ1,3Galβ-O-naphthalenemethanol [AcGnG-NM]” the “cell adhesion to immobilized P-selectin” value [1] was “moderate reduction”, the “spontaneous tumor metastasis (BrdU-labeled cells in the lungs)” value (LLC cells) was “Inhibits Spontaneous Tumor Metastasis” and the “distribution of treated versus untreated cells” value (LS180 cells [2]; P-selectin deficient mice) was “no difference”. For the same substance, the “counts recovered in the blood compartment” value (LS180 cells [2]; [5]) was “corresponding increase”, the “seeding of the lungs” value (LS180 cells [2]; [5]) was “substantially reduced” and the “platelet protection from cytolysis” value (LS180 cells [3]; cells pretreated with 50 μM for 6 days, mouse leukocytes and platelets) was “markedly reduced”. For the same substance, the “cytolysis in whole human blood” value (LS180 cells [3]; whole human blood, 3 hr) was “comparable results” and the “adhesion to TNF-α activated HMVEC” value [4] was “inhibited adhesion”.
